{"source": "patent US20060142180A1", "about": "“Cholinergic modulation of microglial activation via alpha-7 nicotinic receptors” (priority 2003, published 2006)", "key": {"[1]": {"test_system": "LPS-induced TNF-α release in primary cultured microglial cells", "assay": "LPS-induced TNF-α release from primary cultured microglial cells (ELISA)", "format": "cell-based, mouse", "description": "Murine primary culture microglial cells were isolated from mouse cerebral cortices (C57BL/6 mice) and cultured as previously described (Tan et al. 2000b). To investigate whether α7 nAChR subunits are expressed in microglial cells, we first isolated total RNA from N9 microglial cell line and primary cultured microglial cells for RT-PCR analysis.\nTo determine whether ACh or nicotine could inhibit LPS-induced TNF-α production in these microglial cells, the inventors pre-incubated microglial cells with ACh or nicotine for 30 minutes and challenged these cells with LPS for 4 hours. […] Primary cultured microglial cells pretreated with ACh (FIG. 3B) or nicotine […] at a range of dose as indicated for 30 minutes and challenged with LPS (100 ng/mL) for 4 hours. Microglial TNF-α release was measured by ELISA."}, "[2]": {"target": "α7 nAChR subunit (Mus musculus, UniProt P49582)", "sequence (P49582 23-502)": "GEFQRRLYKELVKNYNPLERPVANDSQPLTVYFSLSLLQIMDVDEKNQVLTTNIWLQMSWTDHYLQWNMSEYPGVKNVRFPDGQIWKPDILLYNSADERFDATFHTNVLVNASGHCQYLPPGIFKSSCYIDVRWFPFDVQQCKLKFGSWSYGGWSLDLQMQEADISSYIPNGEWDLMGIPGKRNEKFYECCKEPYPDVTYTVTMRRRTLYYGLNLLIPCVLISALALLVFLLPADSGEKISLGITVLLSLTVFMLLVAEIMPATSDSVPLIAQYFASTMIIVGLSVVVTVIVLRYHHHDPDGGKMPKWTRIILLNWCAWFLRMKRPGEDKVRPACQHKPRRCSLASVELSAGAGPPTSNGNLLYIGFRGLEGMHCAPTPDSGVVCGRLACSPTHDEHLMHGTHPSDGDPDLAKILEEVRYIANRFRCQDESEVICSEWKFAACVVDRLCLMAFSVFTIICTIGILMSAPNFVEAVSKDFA"}}, "note": "Read-outs that look alike come from different tables or passages of the source."}
{"compound": "α-bungarotoxin", "values": [{"measurement": "TNF-α release, antagonist plus LPS versus LPS alone", "setting": "[1]", "result": "no significances"}]}
{"compound": "CN1CCCC1c1cccnc1", "note": "(stereo not drawn) [nicotine]", "values": [{"measurement": "fluorescent intensity of FITC-labeled α-bungarotoxin binding", "setting": "[2]", "result": "marked reduction"}, {"measurement": "dose dependence of inhibition of microglial LPS-induced TNF-α production", "setting": "[1]", "result": "dose-dependently inhibits"}, {"measurement": "LPS-induced TNF-α release", "setting": "[1]; pre-stimulated 30 minutes at 5 μM, then LPS 100 ng/mL for 4 hours, p<0.01 vs LPS (FIG. 3A)", "result": "marked reduction"}]}
{"compound": "CNC1(C)C2CCC(C2)C1(C)C", "note": "(stereo not drawn) [mecamylamine]", "values": [{"measurement": "effect of nACh antagonist on ACh or nicotine-mediated inhibition of microglial TNF-α production", "setting": "[1]", "result": "significantly recovers"}, {"measurement": "TNF-α release, antagonist plus LPS versus LPS alone", "setting": "[1]; antagonist without agonist, […], LPS 100 ng/mL 4 hours, p>0.05", "result": "no significances"}]}
